Consider 2 molecules from ChEMBL document CHEMBL4706695, “Small molecule approaches to treat autoimmune and inflammatory diseases (Part I): Kinase inhibitors” (Bioorg Med Chem Lett, 2021).

The structures appear in SMILES notation.

The test deals with Tyrosine-protein kinase BTK (Homo sapiens, UniProt Q06187). Nature of the test: Inhibition of BTK (unknown origin) One-hour enzymatic assay without pre-incubation.
Tyrosine-protein kinase BTK, sequence (Q06187 whole entry): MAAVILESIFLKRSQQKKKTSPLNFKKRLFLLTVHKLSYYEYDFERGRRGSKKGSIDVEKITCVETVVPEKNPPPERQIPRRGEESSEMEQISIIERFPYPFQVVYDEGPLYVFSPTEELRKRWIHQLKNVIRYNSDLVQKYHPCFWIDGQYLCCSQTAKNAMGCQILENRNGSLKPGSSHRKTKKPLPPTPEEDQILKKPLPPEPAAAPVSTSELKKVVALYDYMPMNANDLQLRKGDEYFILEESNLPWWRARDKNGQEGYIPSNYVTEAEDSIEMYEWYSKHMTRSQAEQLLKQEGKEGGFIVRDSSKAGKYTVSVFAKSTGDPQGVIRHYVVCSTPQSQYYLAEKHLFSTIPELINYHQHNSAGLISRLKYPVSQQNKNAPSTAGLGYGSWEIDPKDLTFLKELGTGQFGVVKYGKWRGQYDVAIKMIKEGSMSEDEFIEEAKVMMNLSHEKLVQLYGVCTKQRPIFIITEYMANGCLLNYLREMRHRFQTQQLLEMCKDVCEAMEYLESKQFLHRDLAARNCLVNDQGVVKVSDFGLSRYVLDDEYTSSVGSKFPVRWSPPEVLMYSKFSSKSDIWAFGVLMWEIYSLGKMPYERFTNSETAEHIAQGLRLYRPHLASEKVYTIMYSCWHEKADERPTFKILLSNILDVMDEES

Regarding `N#CN1CCC[C@@H](n2nc(-c3ccc(Oc4ccc(F)cc4F)cc3)c(C(N)=O)c2N)C1`, the IC50 – broadly, the concentration needed to halve the response being measured – turned out to be 0.5 nM. In turn, `C=CC(=O)N1CCC[C@@H](c2ccc(C(N)=O)c3[nH]ccc23)C1` [ELSUBRUTINIB] had an IC50 of 33 nM.
